*1 amine or outer side, *2 acyl side, *3 side chain or, on linkers, in order; H or OH if unused. Where a SMILES comes first, the peptide text is derived from it. Side-chain parts run from the residue outwards. [ ]: non-standard residue; d: D form. The star is where a group is joined. C20 diacid = O=C(O)CCCCCCCCCCCCCCCCCCC(=O)*; αMePhe(2-F) = C[C@](N)(Cc1ccccc1F)C(=O)O; γGlu = O=C(O)[C@H](CCC(=O)[*:2])N[*:1]; αMeF = C[C@](N)(Cc1ccccc1)C(=O)O; 4Pal = N[C@@H](Cc1ccncc1)C(=O)O; αMeL = CC(C)C[C@](C)(N)C(=O)O; AEEA = NCCOCCOCC(=O)O; Aib = CC(C)(N)C(=O)O
Columns and labels:
Assay in all cases: cAMP functional assay (HTRF) in HEK293 cells in presence of 0.1% casein
Format in all cases: cell-based
[1] = biological target: T1, human glucose-dependent insulinotropic peptide receptor (GIPR) (Homo sapiens, UniProt P48546); conditions: HEK293 cells expressing human GIPR, geometric mean, read-out: hGIPR cAMP Rel EC50 nM (SEM, n)
T1 construct: expressed in transfected cells; host or cells: HEK293
T1 sequence (P48546 22-466): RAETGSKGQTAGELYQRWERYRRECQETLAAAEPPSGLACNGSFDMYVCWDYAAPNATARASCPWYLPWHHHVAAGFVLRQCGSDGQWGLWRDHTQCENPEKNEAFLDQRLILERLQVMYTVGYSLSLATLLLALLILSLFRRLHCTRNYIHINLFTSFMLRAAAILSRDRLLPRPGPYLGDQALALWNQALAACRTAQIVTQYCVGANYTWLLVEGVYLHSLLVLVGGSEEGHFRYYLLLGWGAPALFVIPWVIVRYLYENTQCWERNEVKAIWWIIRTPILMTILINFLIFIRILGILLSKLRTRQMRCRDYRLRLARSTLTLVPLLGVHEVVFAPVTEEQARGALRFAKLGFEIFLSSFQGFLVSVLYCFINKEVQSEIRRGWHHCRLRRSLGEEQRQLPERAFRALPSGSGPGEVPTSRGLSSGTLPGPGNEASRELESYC

[2] = biological target: T2, human GLP-1 receptor (GLP-1R) (Homo sapiens, UniProt P43220); conditions: HEK293 cells expressing human GLP-1R, geometric mean, read-out: hGLP1R cAMP Rel EC50 nM (SEM, n)
T2 construct: expressed in transfected cells; host or cells: HEK293

[3] = biological target: T3, human glucagon receptor (GcgR) (Homo sapiens, UniProt P47871); conditions: HEK293 cells expressing human GcgR, geometric mean, read-out: hGcgR cAMP Rel EC50 nM (SEM, n)
T3 construct: expressed in transfected cells; host or cells: HEK293
T3 sequence (P47871 26-477): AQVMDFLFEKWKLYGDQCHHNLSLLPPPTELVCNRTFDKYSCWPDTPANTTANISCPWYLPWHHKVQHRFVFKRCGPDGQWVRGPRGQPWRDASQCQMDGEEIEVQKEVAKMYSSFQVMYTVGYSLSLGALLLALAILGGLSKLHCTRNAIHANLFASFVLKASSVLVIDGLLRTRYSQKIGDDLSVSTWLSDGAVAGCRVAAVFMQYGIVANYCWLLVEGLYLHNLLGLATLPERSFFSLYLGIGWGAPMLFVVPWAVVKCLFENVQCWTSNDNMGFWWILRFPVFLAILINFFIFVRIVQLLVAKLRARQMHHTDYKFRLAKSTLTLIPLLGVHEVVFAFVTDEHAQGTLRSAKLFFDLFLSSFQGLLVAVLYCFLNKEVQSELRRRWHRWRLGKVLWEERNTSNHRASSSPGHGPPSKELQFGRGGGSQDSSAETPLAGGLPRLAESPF

T2 sequence (P43220 24-463): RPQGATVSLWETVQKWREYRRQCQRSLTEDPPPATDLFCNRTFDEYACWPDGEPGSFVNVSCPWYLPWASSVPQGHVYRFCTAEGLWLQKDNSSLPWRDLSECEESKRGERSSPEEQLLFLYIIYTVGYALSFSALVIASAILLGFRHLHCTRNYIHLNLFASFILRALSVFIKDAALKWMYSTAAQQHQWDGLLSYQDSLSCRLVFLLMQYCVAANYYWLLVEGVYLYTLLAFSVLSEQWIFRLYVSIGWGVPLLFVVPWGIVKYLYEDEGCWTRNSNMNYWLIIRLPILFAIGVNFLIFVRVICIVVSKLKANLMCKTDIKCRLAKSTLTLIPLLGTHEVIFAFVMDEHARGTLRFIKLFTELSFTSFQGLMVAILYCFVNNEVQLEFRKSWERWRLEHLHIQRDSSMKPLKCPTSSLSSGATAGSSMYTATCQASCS

Compound	EC50 [1] [nM]	EC50 [2] [nM]	EC50 [3] [nM]
CC[C@H](C)[C@H](NC(=O)[C@H](Cc1ccccc1)NC(=O)[C@@H](NC(=O)CNC(=O)[C@H](CCC(=O)O)NC(=O)C(C)(C)NC(=O)[C@@H](N)Cc1ccc(O)cc1)[C@@H](C)O)C(=O)N[C@@H](CO)C(=O)N[C@@H](CC(=O)O)C(=O)N[C@@H](Cc1ccc(O)cc1)C(=O)N[C@@H](CO)C(=O)N[C@H](C(=O)N[C@@](C)(CC(C)C)C(=O)N[C@@H](CC(C)C)C(=O)N[C@@H](CC(=O)O)C(=O)N[C@@H](CCCCN)C(=O)N[C@@H](CCCCNC(=O)COCCOCCNC(=O)COCCOCCNC(=O)CC[C@H](NC(=O)CCCCCCCCCCCCCCCCCCC(=O)O)C(=O)O)C(=O)N[C@@H](Cc1c[nH]cn1)C(=O)N[C@@H](CCC(N)=O)C(=O)NC(C)(C)C(=O)N[C@@H](CC(=O)O)C(=O)N[C@@H](Cc1ccccc1)C(=O)N[C@H](C(=O)N[C@@H](CCC(=O)O)C(=O)N[C@@H](Cc1ccncc1)C(=O)N[C@@H](CC(C)C)C(=O)N[C@@H](CC(C)C)C(=O)N[C@@H](CCC(=O)O)C(=O)N[C@H](C(=O)NCC(=O)N1CCC[C@H]1C(=O)N[C@@H](CO)C(=O)N[C@@H](CO)C(=O)NCC(=O)N[C@@H](C)C(=O)N1CCC[C@H]1C(=O)N1CCC[C@H]1C(=O)N1CCC[C@H]1C(=O)N[C@@H](CO)C(N)=O)[C@@H](C)O)C(C)C)[C@@H](C)CC [Example 45] (H-Y[Aib]EGTFISDYSI[αMeL]LDKK([AEEA-AEEA-γGlu-C20 diacid])HQ[Aib]DFVE[4Pal]LLETGPSSGAPPPS-NH2)	0.049	> 5000	1690
CC[C@H](C)[C@H](NC(=O)[C@H](CO)NC(=O)[C@H](Cc1ccc(O)cc1)NC(=O)[C@H](CC(=O)O)NC(=O)[C@H](CO)NC(=O)[C@@H](NC(=O)[C@](C)(Cc1ccccc1F)NC(=O)[C@@H](NC(=O)CNC(=O)[C@H](CCC(=O)O)NC(=O)C(C)(C)NC(=O)[C@@H](N)Cc1ccc(O)cc1)[C@@H](C)O)[C@@H](C)CC)C(=O)N[C@@H](C)C(=O)N[C@@H](CC(C)C)C(=O)N[C@@H](CC(=O)O)C(=O)N[C@@H](CCCCN)C(=O)N[C@@H](CCCCNC(=O)COCCOCCNC(=O)COCCOCCNC(=O)CC[C@H](NC(=O)CCCCCCCCCCCCCCCCCCC(=O)O)C(=O)O)C(=O)N[C@@H](Cc1c[nH]cn1)C(=O)N[C@@H](CCC(N)=O)C(=O)NC(C)(C)C(=O)N[C@@H](CC(=O)O)C(=O)N[C@@H](Cc1ccccc1)C(=O)N[C@H](C(=O)N[C@@H](CCC(=O)O)C(=O)N[C@@H](Cc1ccncc1)C(=O)N[C@@H](CC(C)C)C(=O)N[C@@H](CC(C)C)C(=O)N[C@@H](CCC(=O)O)C(=O)N[C@H](C(=O)NCC(=O)N1CCC[C@H]1C(=O)N[C@@H](CO)C(=O)N[C@@H](CO)C(=O)NCC(=O)N[C@@H](C)C(=O)N1CCC[C@H]1C(=O)N1CCC[C@H]1C(=O)N1CCC[C@H]1C(=O)N[C@@H](CO)C(N)=O)[C@@H](C)O)C(C)C [Example 38] (H-Y[Aib]EGT[αMePhe(2-F)]ISDYSIALDKK([AEEA-AEEA-γGlu-C20 diacid])HQ[Aib]DFVE[4Pal]LLETGPSSGAPPPS-NH2)	0.0368	1390	> 5000
CC[C@H](C)[C@H](NC(=O)[C@H](Cc1ccccc1)NC(=O)[C@@H](NC(=O)CNC(=O)[C@H](CCC(=O)O)NC(=O)C(C)(C)NC(=O)[C@@H](N)Cc1ccc(O)cc1)[C@@H](C)O)C(=O)N[C@@H](CO)C(=O)N[C@@H](CC(=O)O)C(=O)N[C@@H](Cc1ccc(O)cc1)C(=O)N[C@@H](CO)C(=O)N[C@H](C(=O)N[C@@](C)(CC(C)C)C(=O)N[C@@H](CC(C)C)C(=O)N[C@@H](CC(=O)O)C(=O)N[C@@H](CCCCN)C(=O)N[C@@H](CCCCNC(=O)COCCOCCNC(=O)COCCOCCNC(=O)CC[C@H](NC(=O)CCCCCCCCCCCCCCCCCCC(=O)O)C(=O)O)C(=O)N[C@@H](Cc1c[nH]cn1)C(=O)N[C@@H](CCC(N)=O)C(=O)NC(C)(C)C(=O)N[C@@H](CC(=O)O)C(=O)N[C@@H](Cc1ccccc1)C(=O)N[C@H](C(=O)N[C@@H](CCC(=O)O)C(=O)N[C@@H](Cc1ccc(O)cc1)C(=O)N[C@@H](CC(C)C)C(=O)N[C@@H](CC(C)C)C(=O)N[C@@H](CCC(=O)O)C(=O)N[C@H](C(=O)NCC(=O)N1CCC[C@H]1C(=O)N[C@@H](CO)C(=O)N[C@@H](CO)C(=O)NCC(=O)N[C@@H](C)C(=O)N1CCC[C@H]1C(=O)N1CCC[C@H]1C(=O)N1CCC[C@H]1C(=O)N[C@@H](CO)C(N)=O)[C@@H](C)O)C(C)C)[C@@H](C)CC [Example 66] (H-Y[Aib]EGTFISDYSI[αMeL]LDKK([AEEA-AEEA-γGlu-C20 diacid])HQ[Aib]DFVEYLLETGPSSGAPPPS-NH2)	0.0786	> 5000	> 5000
CC[C@H](C)[C@H](NC(=O)[C@H](CO)NC(=O)[C@H](Cc1ccc(O)cc1)NC(=O)[C@H](CC(=O)O)NC(=O)[C@H](CO)NC(=O)[C@@H](NC(=O)[C@](C)(Cc1ccccc1)NC(=O)[C@@H](NC(=O)CNC(=O)[C@H](CCC(=O)O)NC(=O)C(C)(C)NC(=O)[C@@H](N)Cc1ccc(O)cc1)[C@@H](C)O)[C@@H](C)CC)C(=O)N[C@@](C)(CC(C)C)C(=O)N[C@@H](CC(C)C)C(=O)N[C@@H](CC(=O)O)C(=O)N[C@@H](CCCCN)C(=O)N[C@@H](CCCCNC(=O)COCCOCCNC(=O)COCCOCCNC(=O)CC[C@H](NC(=O)CCCCCCCCCCCCCCCCCCC(=O)O)C(=O)O)C(=O)N[C@@H](Cc1c[nH]cn1)C(=O)N[C@@H](CCC(N)=O)C(=O)NC(C)(C)C(=O)N[C@@H](CCC(=O)O)C(=O)N[C@@H](Cc1ccccc1)C(=O)N[C@H](C(=O)N[C@@H](CCC(=O)O)C(=O)N[C@@H](Cc1ccncc1)C(=O)N[C@@H](CC(C)C)C(=O)N[C@@H](CC(C)C)C(=O)N[C@@H](C)C(=O)N[C@@H](C)C(=O)NCC(=O)N1CCC[C@H]1C(=O)N[C@@H](CO)C(=O)N[C@@H](CO)C(=O)NCC(=O)N[C@@H](C)C(=O)N1CCC[C@H]1C(=O)N1CCC[C@H]1C(=O)N1CCC[C@H]1C(=O)N[C@@H](CO)C(N)=O)C(C)C [Example 62] (H-Y[Aib]EGT[αMeF]ISDYSI[αMeL]LDKK([AEEA-AEEA-γGlu-C20 diacid])HQ[Aib]EFVE[4Pal]LLAAGPSSGAPPPS-NH2)	0.0116	58.2	> 5000
CC[C@H](C)[C@H](NC(=O)[C@H](Cc1ccccc1)NC(=O)[C@@H](NC(=O)CNC(=O)[C@H](CCC(=O)O)NC(=O)C(C)(C)NC(=O)[C@@H](N)Cc1ccc(O)cc1)[C@@H](C)O)C(=O)N[C@@H](CO)C(=O)N[C@@H](CC(=O)O)C(=O)N[C@@H](Cc1ccc(O)cc1)C(=O)N[C@@H](CO)C(=O)N[C@H](C(=O)N[C@@](C)(CC(C)C)C(=O)N[C@@H](CC(C)C)C(=O)N[C@@H](CC(=O)O)C(=O)N[C@@H](CCCCN)C(=O)N[C@@H](CCCCNC(=O)COCCOCCNC(=O)COCCOCCNC(=O)CC[C@H](NC(=O)CCCCCCCCCCCCCCCCCCC(=O)O)C(=O)O)C(=O)N[C@@H](Cc1c[nH]cn1)C(=O)N[C@@H](CCC(N)=O)C(=O)NC(C)(C)C(=O)N[C@@H](CCC(=O)O)C(=O)N[C@@H](Cc1ccccc1)C(=O)N[C@H](C(=O)N[C@@H](CCC(=O)O)C(=O)N[C@@H](Cc1ccc(O)cc1)C(=O)N[C@@H](CC(C)C)C(=O)N[C@@H](CC(C)C)C(=O)N[C@@H](CCC(=O)O)C(=O)N[C@@H](C)C(=O)NCC(=O)N1CCC[C@H]1C(=O)N[C@@H](CO)C(=O)N[C@@H](CO)C(=O)NCC(=O)N[C@@H](C)C(=O)N1CCC[C@H]1C(=O)N1CCC[C@H]1C(=O)N1CCC[C@H]1C(=O)N[C@@H](CO)C(N)=O)C(C)C)[C@@H](C)CC [Example 65] (H-Y[Aib]EGTFISDYSI[αMeL]LDKK([AEEA-AEEA-γGlu-C20 diacid])HQ[Aib]EFVEYLLEAGPSSGAPPPS-NH2)	0.0346	> 5000	850
CC[C@H](C)[C@H](NC(=O)[C@H](CO)NC(=O)[C@H](Cc1ccc(O)cc1)NC(=O)[C@H](CC(=O)O)NC(=O)[C@H](CO)NC(=O)[C@@H](NC(=O)[C@](C)(Cc1ccccc1)NC(=O)[C@@H](NC(=O)CNC(=O)[C@H](CCC(=O)O)NC(=O)C(C)(C)NC(=O)[C@@H](N)Cc1ccc(O)cc1)[C@@H](C)O)[C@@H](C)CC)C(=O)N[C@@H](C)C(=O)N[C@@H](CC(C)C)C(=O)N[C@@H](CC(=O)O)C(=O)N[C@@H](CCCCN)C(=O)N[C@@H](CCCCNC(=O)COCCOCCNC(=O)COCCOCCNC(=O)CC[C@H](NC(=O)CCCCCCCCCCCCCCCCCCC(=O)O)C(=O)O)C(=O)N[C@@H](Cc1c[nH]cn1)C(=O)N[C@@H](CCC(N)=O)C(=O)NC(C)(C)C(=O)N[C@@H](CC(=O)O)C(=O)N[C@@H](Cc1ccccc1)C(=O)N[C@H](C(=O)N[C@@H](CCC(=O)O)C(=O)N[C@@H](Cc1ccncc1)C(=O)N[C@@H](CC(C)C)C(=O)N[C@@H](CC(C)C)C(=O)N[C@@H](CCC(=O)O)C(=O)N[C@H](C(=O)NCC(=O)N1CCC[C@H]1C(=O)N[C@@H](CO)C(=O)N[C@@H](CO)C(=O)NCC(=O)N[C@@H](C)C(=O)N1CCC[C@H]1C(=O)N1CCC[C@H]1C(=O)N1CCC[C@H]1C(=O)N[C@@H](CO)C(N)=O)[C@@H](C)O)C(C)C [Example 41] (H-Y[Aib]EGT[αMeF]ISDYSIALDKK([AEEA-AEEA-γGlu-C20 diacid])HQ[Aib]DFVE[4Pal]LLETGPSSGAPPPS-NH2)	0.0281	1800	> 5000
